Reference: PMC5879128, “Combined in Vitro and in Silico Studies for the Anticholinesterase Activity and Pharmacokinetics of Coumarinyl Thiazoles and Oxadiazoles” (Frontiers in Chemistry, 2018)
Where two headings read alike, the source gives them in different places.

What was measured:
[1] = target: T1, AChE (Electrophorus electricus, UniProt O42275); test: biochemical; assay type: biochemical; details: for IC50: electric eel AChE, Ellman's method, SEM of three experiments; for Selectivity for AChE: ratio of IC50 values, BuChE over AChE; for fold stronger AChE inhibition than the standard neostigmine: relative to neostigmine
T1 construct: electric eel, and horse serum were used as source of AChE and BuChE, respectively; from tissue; host or cells: electric eel
T1 sequence (O42275 24-633): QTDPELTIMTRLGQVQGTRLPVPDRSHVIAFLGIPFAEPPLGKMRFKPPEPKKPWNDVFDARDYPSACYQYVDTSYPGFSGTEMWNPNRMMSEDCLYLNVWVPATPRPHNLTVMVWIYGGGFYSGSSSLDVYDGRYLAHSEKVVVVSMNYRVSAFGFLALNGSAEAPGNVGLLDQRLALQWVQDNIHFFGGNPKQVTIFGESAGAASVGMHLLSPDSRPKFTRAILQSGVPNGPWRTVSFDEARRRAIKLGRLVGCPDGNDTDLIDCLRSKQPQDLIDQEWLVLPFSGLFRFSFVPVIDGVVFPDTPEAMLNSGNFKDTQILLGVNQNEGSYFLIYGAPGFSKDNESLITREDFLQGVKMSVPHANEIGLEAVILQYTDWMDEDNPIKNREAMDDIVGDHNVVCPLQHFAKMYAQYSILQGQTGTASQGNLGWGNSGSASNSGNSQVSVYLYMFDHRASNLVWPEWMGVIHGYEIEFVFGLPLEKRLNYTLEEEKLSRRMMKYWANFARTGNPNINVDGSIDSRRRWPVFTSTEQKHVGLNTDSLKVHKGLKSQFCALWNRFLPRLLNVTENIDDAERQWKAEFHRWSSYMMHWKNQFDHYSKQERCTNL
Method: (§1) The target compounds, coumarinyl thiazoles 6(a–o) and coumarinyl oxadiazoles 11(a–h), were screened for their inhibitory activity against AChE and BuChE by Ellman's method.
(§2) For the determination of cholinesterase inhibition, electric eel, and horse serum were used as source of AChE and BuChE, respectively. […] The compounds with 1 Mm concentration were prepared in DMSO. Assay was carried out in 96 well-plate in triplicates. The reaction mixture comprised of 20 μL of buffer (tris HCl 50 mM, 0.02 M MgCl2.6H2O, 0.1 mM NaCl) at pH 8, 10 μL of the test compound, 10 μL enzyme acetylcholine or butyrylcholinesterase of 0.03 U/mL (500 U of AChE and 700 U/mg of BuChE). The contents were incubated for 10 min at 25°C followed by the addition of 1 mM of 10 μL of substrate […] for AChE and butyrylthiocholine iodide for BuChE and incubated again at 25°C for 15 min. A 50 μL of 3 mM DTNB as a coloring agent was added and incubated at 25°C for further 10 min. […] The enzyme dilutions were made by using buffer of pH 8 (tris base 50 mM and having 0.1% BSA).

[2] = target: T2, BuChE (Equus caballus, UniProt P81908); test: biochemical; assay type: biochemical; details: for Selectivity for BuChE: ratio of IC50 values, AChE over BuChE
T2 construct: electric eel, and horse serum were used as source of AChE and BuChE, respectively; from tissue; host or cells: horse serum
T2 sequence (P81908 whole entry): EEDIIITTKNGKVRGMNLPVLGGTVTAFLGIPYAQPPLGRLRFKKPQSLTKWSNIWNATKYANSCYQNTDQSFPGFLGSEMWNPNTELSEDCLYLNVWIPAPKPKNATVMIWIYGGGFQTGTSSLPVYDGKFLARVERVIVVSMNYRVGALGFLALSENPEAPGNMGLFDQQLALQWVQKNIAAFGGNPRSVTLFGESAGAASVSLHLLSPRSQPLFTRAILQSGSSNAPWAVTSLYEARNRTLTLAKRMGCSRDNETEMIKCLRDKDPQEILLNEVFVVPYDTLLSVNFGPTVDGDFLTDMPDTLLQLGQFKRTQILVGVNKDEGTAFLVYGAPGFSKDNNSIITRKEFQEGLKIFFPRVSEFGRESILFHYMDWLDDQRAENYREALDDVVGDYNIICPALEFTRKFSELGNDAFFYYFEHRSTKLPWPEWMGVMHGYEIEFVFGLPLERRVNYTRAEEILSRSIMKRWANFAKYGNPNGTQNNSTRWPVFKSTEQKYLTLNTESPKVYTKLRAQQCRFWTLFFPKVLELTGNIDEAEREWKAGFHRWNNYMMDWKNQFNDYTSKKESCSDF
Method: as §1, §2

[3] = horse serum BuChE, Ellman's method, SEM of three experiments, read-out: BuChE IC50 (μM) ± SEM

CCCCNCn1nc(-c2cc3ccccc3oc2=O)oc1=S [Compound 11b]
IC50 [1]: 9.41 ± 0.55 µM
Selectivity for AChE [1]: 0.081
IC50 [2, 3]: 0.77 ± 0.08 µM
Selectivity for BuChE [2]: 12.2

COc1ccc(/C(C)=N/Nc2nc(-c3cc4ccccc4oc3=O)cs2)c(O)c1 [Compound 6j]
IC50 [1]: 9.05 ± 0.23 µM
Selectivity for AChE [1]: 1.22
IC50 [2, 3]: 11 ± 3.37 µM
Selectivity for BuChE [2]: 0.81

CNCn1nc(-c2cc3ccccc3oc2=O)oc1=S [Compound 11a]
IC50 [1]: 6.07 ± 0.23 µM
Selectivity for AChE [1]: 0.056
IC50 [2, 3]: 0.341 ± 0.06 µM
Selectivity for BuChE [2]: 17.8

C/C(=N\Nc1nc(-c2cc3ccccc3oc2=O)cs1)c1ccccc1 [Compound 6a]
IC50 [1]: 16.9 ± 0.32 µM
Selectivity for AChE [1]: 1.93
IC50 [2, 3]: 32.7 ± 2.08 µM
Selectivity for BuChE [2]: 0.51

O=c1oc2ccccc2cc1-c1nn(CNc2ccc(Cl)cc2)c(=S)o1 [Compound 11f]
IC50 [1]: 18.6 ± 0.32 µM
Selectivity for AChE [1]: 0.65
IC50 [2, 3]: 12.1 ± 1.08 µM
Selectivity for BuChE [2]: 1.53

C/C(=N\Nc1nc(-c2cc3ccccc3oc2=O)cs1)c1cc2ccccc2oc1=O [Compound 6o]
IC50 [1]: 10.1 ± 1.12 µM
Selectivity for AChE [1]: 2.28
IC50 [2, 3]: 23.2 ± 0.29 µM
Selectivity for BuChE [2]: 0.43

O=c1oc2ccccc2cc1-c1csc(NN=C(c2ccccc2)c2ccccc2)n1 [Compound 6n]
IC50 [1]: 11.2 ± 0.17 µM
Selectivity for AChE [1]: 1.94
IC50 [2, 3]: 21.6 ± 3.09 µM
Selectivity for BuChE [2]: 0.51

C/C(=N\Nc1nc(-c2cc3ccccc3oc2=O)cs1)c1ccc(Cl)cc1N [Compound 6m]
IC50 [1]: 22.74 ± 0.16 µM
Selectivity for AChE [1]: 1.63
IC50 [2, 3]: 37.2 ± 0.55 µM
Selectivity for BuChE [2]: 0.61

C/C(=N\Nc1nc(-c2cc3ccccc3oc2=O)cs1)c1ccc(F)cc1 [Compound 6g]
IC50 [1]: 36.34 ± 0.18 µM
Selectivity for AChE [1]: 0.77
IC50 [2, 3]: 28.01 ± 0.21 µM
Selectivity for BuChE [2]: 1.29

C/C(=N\Nc1nc(-c2cc3ccccc3oc2=O)cs1)c1ccccc1Br [Compound 6c]
IC50 [1]: 21.2 ± 0.23 µM
Selectivity for AChE [1]: 0.91
IC50 [2, 3]: 19.3 ± 1.42 µM
Selectivity for BuChE [2]: 1.09

C/C(=N\Nc1nc(-c2cc3ccccc3oc2=O)cs1)c1cccc(Br)c1 [Compound 6d]
IC50 [1]: 30.1 ± 1.73 µM
Selectivity for AChE [1]: 0.50
BuChE inhibition, in words [2]: moderate inhibitors
IC50 [2, 3]: 15.2 ± 0.53 µM
Selectivity for BuChE [2]: 1.98

O=c1oc2ccccc2cc1-c1nn(CN2CCOCC2)c(=S)o1 [Compound 11h]
AChE inhibition, in words [1]: moderate inhibitors
IC50 [1]: 12.2 ± 1.67 µM
Selectivity for AChE [1]: 1.09
IC50 [2, 3]: 13.5 ± 0.41 µM
Selectivity for BuChE [2]: 0.91

COc1cc(C(C)=NNc2nc(-c3cc4ccccc4oc3=O)cs2)ccc1O [Compound 6k]
IC50 [1]: 5.86 ± 0.15 µM
Selectivity for AChE [1]: 3.29
IC50 [2, 3]: 19.1 ± 1.32 µM
Selectivity for BuChE [2]: 0.303

O=c1oc2ccccc2cc1-c1nn(CN(c2ccccc2)c2ccccc2)c(=S)o1 [Compound 11g]
AChE inhibition, in words [1]: moderate inhibitors
IC50 [1]: 9.57 ± 1.42 µM
Selectivity for AChE [1]: 0.47
IC50 [2, 3]: 4.54 ± 0.54 µM
Selectivity for BuChE [2]: 2.10

COc1ccc(/C(C)=N/Nc2nc(-c3cc4ccccc4oc3=O)cs2)cc1I [Compound 6l]
IC50 [1]: 13.8 ± 1.58 µM
Selectivity for AChE [1]: 2.32
IC50 [2, 3]: 32.1 ± 1.08 µM
Selectivity for BuChE [2]: 0.42

CC(=NNc1nc(-c2cc3ccccc3oc2=O)cs1)c1cccc(N)c1 [Compound 6b]
IC50 [1]: 0.87 ± 0.09 µM
Selectivity for AChE [1]: 35.8
fold stronger AChE inhibition than the standard neostigmine [1]: ~ 32 fold
IC50 [2, 3]: 31.22 ± 0.17 µM
Selectivity for BuChE [2]: 0.027

C/C(=N\Nc1nc(-c2cc3ccccc3oc2=O)cs1)c1ccc(Br)cc1 [Compound 6e]
IC50 [1]: 33.42 ± 0.18 µM
Selectivity for AChE [1]: 1.47
IC50 [2, 3]: 49.12 ± 0.12 µM
Selectivity for BuChE [2]: 0.68

CN(C)C(=O)Oc1cccc([N+](C)(C)C)c1 [Neostigmine, reference compound]
IC50 [1]: 28.2 ± 2.01 µM
Selectivity for AChE [1]: 0.57
IC50 [2]: 16.1 ± 1.13 µM
Selectivity for BuChE [2]: 1.75

COc1ccc(C(C)=NNc2nc(-c3cc4ccccc4oc3=O)cs2)cc1 [Compound 6h]
IC50 [1]: 1.08 ± 0.84 µM
Selectivity for AChE [1]: 17.8
fold stronger AChE inhibition than the standard neostigmine [1]: 26 fold
BuChE inhibition, in words [2]: moderate inhibitors
IC50 [2, 3]: 19.32 ± 0.11 µM
Selectivity for BuChE [2]: 0.055

COc1ccc(/C(C)=N/Nc2nc(-c3cc4ccccc4oc3=O)cs2)cc1F [Compound 6i]
IC50 [1]: 2.34 ± 1.43 µM
Selectivity for AChE [1]: 9.44
IC50 [2, 3]: 22.1 ± 1.08 µM
Selectivity for BuChE [2]: 0.105

O=c1oc2ccccc2cc1-c1nn(CNc2ccccc2Cl)c(=S)o1 [Compound 11d]
IC50 [1]: 16.6 ± 2.72 µM
Selectivity for AChE [1]: 0.20
IC50 [2, 3]: 3.48 ± 1.58 µM
Selectivity for BuChE [2]: 4.77

C/C(=N\Nc1nc(-c2cc3ccccc3oc2=O)cs1)c1ccccc1F [Compound 6f]
IC50 [1]: 23.1 ± 0.32 µM
Selectivity for AChE [1]: 1.39
IC50 [2, 3]: 32.1 ± 1.21 µM
Selectivity for BuChE [2]: 0.71

O=c1oc2ccccc2cc1-c1nn(CNc2cccc(Cl)c2)c(=S)o1 [Compound 11e]
IC50 [1]: 12.4 ± 0.08 µM
Selectivity for AChE [1]: 0.012
IC50 [2, 3]: 0.15 ± 0.09 µM
Selectivity for BuChE [2]: 82.6
fold more potent against BuChE than neostigmine ([2]; relative to neostigmine): about 107 fold

Cc1ccc(NCn2nc(-c3cc4ccccc4oc3=O)oc2=S)cc1 [Compound 11c]
IC50 [1]: 23.8 ± 0.94 µM
Selectivity for AChE [1]: 0.33
IC50 [2, 3]: 8.01 ± 3.58 µM
Selectivity for BuChE [2]: 2.97
